# Data from paper PMC8087847, “Effects of self-assembled cell-penetrating peptides and their nano-complexes on ABCB1 expression and activity” (Iranian Journal of Basic Medical Sciences, 2021).
# “Also recorded” adds a separate entry of the source. Like-named read-outs stand apart in the source and are kept apart here. No end group written: not given here.
# Columns and labels:
# [1] = tested on: A549 Dox-resistant cells; test: MTT cell viability, effect of CPPs on Dox cytotoxicity
# Description: (§1) A549 cell line is derived from a drug-resistant human lung carcinoma tissue and adherent in culture. […] It was cultured in RPMI-1640 medium supplemented with 10% FBS, 100 units/ml penicillin, and 100 µg/ml streptomycin at 37 °C in 5% CO2 a humidified atmosphere. Moreover, to develop resistance, 0.1 µM Dox was added to the medium which was not toxic to the cells.
# (§2) Cells were detached from flasks by trypsin and seeded in 96-well plates with a cell density of 1.5×10^4 cells/well (containing 200 μl/well of medium) and incubated for 24 hr at 37 °C in a humidified atmosphere of 5% CO2. The next day, cells were treated with different concentrations of peptides (15, 25, 50 μM), and incubated at the same condition for 24 hr. […] Data were collected from at least 3 independent experiments performed in triplicates and analyzed using the Graphpad Prism 7 software package.
# [2] = tested on: A549 cells; test: Cellular uptake of FAM-labeled peptides by flow cytometry; details: different concentrations, comparison stated in discussion
# Description: (§3) First, cells were seeded in 6-well plates (3×10^5 cells/well) and incubated for 24 hr. Then the medium was removed and cells were washed with PBS. FAM-labeled peptides and nano-complexes were added to wells and incubation was continued for 90 min. The old medium was removed and cells were washed with PBS three times and detached by trypsin/EDTA. Then 2 ml of medium was added to each well, and cells were centrifuged for 5 min, followed by washing three times with PBS and finally suspended in flow cytometry buffer to study the cellular uptake of FAM-labeled peptides and nano-complexes.
# [3] = tested on: A549 cells
# Description: as §3
# [4] = tested on: A549 Dox-resistant cells
# Description: as §1, §2
compound,measurement,setting,value
"COc1cccc2c1C(=O)c1c(O)c3c(c(O)c1C2=O)C[C@@](O)(C(=O)CO)C[C@@H]3O[C@H]1C[C@H](N)[C@H](O)[C@H](C)O1 [Dox, Doxorubicin, reference compound]",IC50,"[1]; Homo sapiens, A549, read-out: IC50 of Dox",20 µM
N=C(N)NCCC[C@H](NC(=O)[C@H](CCCNC(=N)N)NC(=O)[C@H](CCCNC(=N)N)NC(=O)[C@H](CCCNC(=N)N)NC(=O)[C@H](CCCNC(=N)N)NC(=O)[C@H](CCCNC(=N)N)NC(=O)[C@H](CCCNC(=N)N)NC(=O)[C@H](CCCNC(=N)N)NC(=O)[C@H](CCCNC(=N)N)NC(=O)[C@@H](N)CCCNC(=N)N)C(=O)O [Peptide P7],effect on Dox cytotoxicity,"[1]; 25 µM and 50 µM peptide, 20 µM Dox, 24 hr (Figure 3a), MTT",resulted in Dox cytotoxicity; also recorded: increased the Dox toxicity
same,effect on cytotoxicity of Dox,"[1]; 50 µM peptide, 20 µM Dox, after 48 hr (Figure 3b), MTT",increased the cytotoxicity of Dox
same,effect on Dox cytotoxicity,"[1]; after 48 hr, peptide concentration not stated (abstract)",increased Dox cytotoxicity
same,"cellular uptake (discussion, method not specified)",[2],higher uptake efficacy
KKKKKKKKKK [Peptide P8],"cellular uptake (discussion, method not specified)",[3],higher uptake compared with P8/E10 nano-complexes
same,cell viability,"[1]; 15 µM peptide 24 hr pre-treatment, then 20 µM Dox, 24 hr, MTT, at least 3 independent experiments in triplicates",52.5%
same,effect on Dox cytotoxicity,[4],increased Dox cytotoxicity
